ChEMBL document CHEMBL1649217, “Emergence of Klebsiella pneumoniae ST258 with KPC-2 in Poland” (2009)
≈ marks a conversion by molar mass, not a printed value.

Experiments:
Assay type in all cases: functional
[1] = test system: Escherichia coli; test: Antimicrobial activity against rifampicin-resistant Escherichia coli A15 transconjugant expressing beta-lactamase SHV-12 by Etest in presence of beta-lactamase inhibitor clavulanic acid
[2] = test system: Escherichia coli; test: Antimicrobial activity against rifampicin-resistant Escherichia coli A15 by Etest in presence of beta-lactamase inhibitor clavulanic acid
[3] = test system: Klebsiella pneumoniae; test: Antimicrobial activity against Klebsiella pneumoniae isolate 2641/08 obtained from urine of patient with ischemic cardiomyopathy and several comorbidities by Etest in presence of beta-lactamase inhibitor clavulanic acid; conditions: isolate 2641/08, Urine
[4] = test system: Escherichia coli; test: Antimicrobial activity against rifampicin-resistant Escherichia coli A15 transconjugant expressing beta-lactamase KPC-2/TEM-1 by Etest in presence of beta-lactamase inhibitor clavulanic acid
[5] = test system: Escherichia coli; test: Antimicrobial activity against rifampicin-resistant Escherichia coli A15 transconjugant expressing beta-lactamase KPC-2/TEM-1 by Etest
[6] = test system: Klebsiella pneumoniae; test: Antimicrobial activity against Klebsiella pneumoniae isolate 2641/08 obtained from urine of patient with ischemic cardiomyopathy and several comorbidities by Etest in presence of beta-lactamase inhibitor Tazobactam; conditions: isolate 2641/08, Urine
[7] = test system: Klebsiella pneumoniae; test: Antimicrobial activity against Klebsiella pneumoniae isolate 2641/08 obtained from urine of patient with ischemic cardiomyopathy and several comorbidities by Etest
[8] = test system: Escherichia coli; test: Antimicrobial activity against rifampicin-resistant Escherichia coli A15 by Etest
[9] = test system: Escherichia coli; test: Antimicrobial activity against rifampicin-resistant Escherichia coli A15 transconjugant expressing beta-lactamase SHV-12 by Etest
[10] = test system: Escherichia coli; test: Antimicrobial activity against rifampicin-resistant Escherichia coli A15 transconjugant expressing beta-lactamase SHV-12 by Etest in presence of beta-lactamase inhibitor Tazobactam
[11] = test system: Escherichia coli; test: Antimicrobial activity against rifampicin-resistant Escherichia coli A15 transconjugant expressing beta-lactamase KPC-2/TEM-1 by Etest in presence of beta-lactamase inhibitor Tazobactam
[12] = test system: Escherichia coli; test: Antimicrobial activity against rifampicin-resistant Escherichia coli A15 by Etest in presence of beta-lactamase inhibitor Tazobactam
[13] = test system: Klebsiella pneumoniae; test: Antimicrobial activity against Klebsiella pneumoniae isolate 2337/08 obtained from patient with ischemic cardiomyopathy and several comorbidities

With `CC1(C)S[C@@H]2[C@H](NC(=O)[C@H](N)c3ccc(O)cc3)C(=O)N2[C@H]1C(=O)O` [AMOXICILLIN] the MIC [1] was 4 µg/mL, the MIC [2] was 4 µg/mL and the MIC [3] was > 256 µg/mL. It also gave an MIC [4] of 24 µg/mL.
`CCN1CCN(C(=O)N[C@@H](C(=O)N[C@@H]2C(=O)N3[C@@H]2SC(C)(C)[C@@H]3C(=O)O)c2ccccc2)C(=O)C1=O` [PIPERACILLIN] was tested, and the MIC [5] was 96 µg/mL (≈ 185 µM), the MIC [6] was > 256 µg/mL and the MIC ([7]; isolate 2641/08, Urine) was > 256 µg/mL. For the same compound, the MIC [8] was 1.5 µg/mL (≈ 2.9 µM), the MIC [9] was 32 µg/mL (≈ 61.8 µM) and the MIC [10] was 1 µg/mL. It also gave an MIC [11] of 48 µg/mL and an MIC [12] of 1 µg/mL.
In the case of `CN(C)[C@@H]1C(O)=C(C(N)=O)C(=O)[C@@]2(O)C(O)=C3C(=O)c4c(O)cccc4[C@@](C)(O)[C@H]3C[C@@H]12` [TETRACYCLINE], the MIC [5] is reported as 2 µg/mL (≈ 4.5 µM), the MIC ([7]; isolate 2641/08, Urine) is reported as 32 µg/mL (≈ 72 µM) and the MIC [8] is reported as 2 µg/mL (≈ 4.5 µM). It also gave an MIC [9] of 1.5 µg/mL (≈ 3.38 µM).
Work on `NCC[C@H](O)C(=O)N[C@@H]1C[C@H](N)[C@@H](O[C@H]2O[C@H](CN)[C@@H](O)[C@H](O)[C@H]2O)[C@H](O)[C@H]1O[C@H]1O[C@H](CO)[C@@H](O)[C@H](N)[C@H]1O` [AMIKACIN] yielded an MIC [5] of 1.5 µg/mL (≈ 2.56 µM), an MIC ([7]; isolate 2641/08, Urine) of 12 µg/mL (≈ 20.5 µM) and an MIC [8] of 1 µg/mL (≈ 1.71 µM). The MIC [9] was 1 µg/mL (≈ 1.71 µM).
In the case of `O=C(O)c1cn(C2CC2)c2cc(N3CCNCC3)c(F)cc2c1=O` [CIPROFLOXACIN], the MIC ([7]; isolate 2641/08, Urine) is reported as > 32 µg/mL.
GENTAMICIN gave an MIC [5] of 0.25 µg/mL, an MIC [7] of 1 µg/mL and an MIC [8] of 0.19 µg/mL. For the same compound, the MIC [9] was 0.19 µg/mL.
For `CO/N=C(\C(=O)N[C@@H]1C(=O)N2C(C(=O)[O-])=C(C[N+]3(C)CCCC3)CS[C@H]12)c1csc(N)n1`, the MIC [5] was 1.5 µg/mL (≈ 3.12 µM), the MIC ([7]; isolate 2641/08, Urine) was > 32 µg/mL and the MIC [8] was 0.047 µg/mL (≈ 0.0978 µM). It also gave an MIC [9] of 0.5 µg/mL (≈ 1.04 µM).
With COLISTIN the MIC [5] was 0.25 µg/mL, the MIC [7] was 0.38 µg/mL and the MIC [8] was 0.25 µg/mL. For the same compound, the MIC [9] was 0.19 µg/mL.
For `CC1(C)S[C@@H]2[C@H](NC(=O)[C@H](N)c3ccccc3)C(=O)N2[C@H]1C(=O)O` [AMPICILLIN], the MIC [5] was > 256 µg/mL, the MIC ([7]; isolate 2641/08, Urine) was > 256 µg/mL and the MIC [8] was 3 µg/mL (≈ 8.59 µM). For the same compound, the MIC [9] was > 256 µg/mL.
In the case of `C[C@@H](O)[C@H]1C(=O)N2C(C(=O)O)=C(S[C@@H]3CN[C@H](C(=O)N(C)C)C3)[C@H](C)[C@H]12` [MEROPENEM], the MIC [5] is reported as 0.75 µg/mL (≈ 1.96 µM), the MIC ([7]; isolate 2641/08, Urine) is reported as 3 µg/mL (≈ 7.82 µM) and the MIC [8] is reported as 0.032 µg/mL (≈ 0.0834 µM). It also gave an MIC [9] of 0.047 µg/mL (≈ 0.123 µM).
Compound `CN(C)c1cc(NC(=O)CNC(C)(C)C)c(O)c2c1C[C@H]1C[C@H]3[C@H](N(C)C)C(O)=C(C(N)=O)C(=O)[C@@]3(O)C(O)=C1C2=O` [TIGECYCLINE] has an MIC [5] of 0.38 µg/mL (≈ 0.649 µM), an MIC ([7]; isolate 2641/08, Urine) of 3 µg/mL (≈ 5.12 µM) and an MIC [8] of 0.38 µg/mL (≈ 0.649 µM). The MIC [9] was 0.38 µg/mL (≈ 0.649 µM).
With `C[C@@H](O)[C@H]1C(=O)N2C(C(=O)O)=C(SCCNC=N)C[C@H]12` [IMIPENEM ANHYDROUS] the MIC [5] was 3 µg/mL (≈ 10 µM), the MIC [13] was 2 µg/mL (≈ 6.68 µM) and the MIC ([7]; isolate 2641/08, Urine) was 2 µg/mL (≈ 6.68 µM). It also gave an MIC [8] of 0.25 µg/mL (≈ 0.835 µM) and an MIC [9] of 0.25 µg/mL (≈ 0.835 µM).
In the case of `CO/N=C(\C(=O)N[C@@H]1C(=O)N2C(C(=O)O)=C(COC(C)=O)CS[C@H]12)c1csc(N)n1` [CEFOTAXIME], the MIC [5] is reported as 2 µg/mL (≈ 4.39 µM), the MIC ([7]; isolate 2641/08, Urine) is reported as 128 µg/mL (≈ 281 µM) and the MIC [8] is reported as 0.047 µg/mL (≈ 0.103 µM). For the same compound, the MIC [9] was 1.5 µg/mL (≈ 3.29 µM).
`CC(C)(O/N=C(\C(=O)N[C@@H]1C(=O)N2C(C(=O)[O-])=C(C[n+]3ccccc3)CS[C@H]12)c1csc(N)n1)C(=O)O` [CEFTAZIDIME] was tested, and the MIC [5] was 3 µg/mL (≈ 5.49 µM), the MIC ([7]; isolate 2641/08, Urine) was > 256 µg/mL and the MIC [8] was 0.25 µg/mL (≈ 0.457 µM). The MIC [9] was 16 µg/mL (≈ 29.3 µM).
